According to US20260191887A1, “METHODS OF TREATING INFLAMMATION” (THERAPEUTIKOS, INC., priority 2022, published 2026):

How the values were obtained:
[1] = system: nitric oxide; assay: Griess nitrite production assay in LPS-activated RAW264.7 macrophages; format: cell-based, mouse; conditions: LPS 100 ng/mL; NDX1 0.2, 1 and 5 mM, NDX2 0.5 and 5 mM, NAG 0.5-5 mM; n=6
Protocol: Mouse RAW264.7 macrophage cell line (ATCC; Manassas, VA, USA) was maintained in DMEM culture medium containing 10% FBS and 1% antibiotic mix. For cell treatment, the test drugs at different doses were added to the culture 0.5 h prior to addition of 100 ng/mL LPS (Sigma-Aldrich Co., St Louis, MO, USA) and then cells were co-treated with LPS for 24 hours.
The Griess reagent system is based on the chemical reaction which uses sulfanilamide and N-1-napthylethylenediamine dihydrochloride (NED) under acidic (phosphoric acid) conditions. This system detects nitrite production. In the present experiments, nitric oxide detection was performed by a commercial kit (Promega Corporation, Madison, WI, USA), according to the manufacturer's manual. Briefly, all experimental samples and standards containing the dilution series for the nitrite standard reference curve were mixed with 50 μL of the sulfanilamide solution and incubated 10 mins at room temperature without light in a 96-well plate. Then 50 μL of the NED Solution was added to each well and incubated 10 mins at room temperature without light. The optical density (OD) was determined at 530 nm on a microplate reader within 30 mins. No LPS and the other drugs were added in the non-treatment group (NT). The experiment was duplicated. There were six repeats in each group (n=6). […].

[2] = system: primary human chondrocytes; assay: WST-1 cell proliferation assay in primary human chondrocytes with IL-1β; format: cell-based; conditions: IL-1β 5 ng/mL, concentrations up to 5 mM, n=6
Description: Normal cartilage tissues. Articular cartilages were harvested from the femoral condyles and the tibial plateaus, which were obtained from autopsy services at the hospital of UVA and approved by the Institutional Review Board. All tissue samples were graded according to a modified Mankin scale, and only cartilages without evidence of osteoarthritis were used as a source of chondrocytes. The interval between death and the time the cartilages were harvested from these knee joints in the laboratory were at least 24 h and ranged up to 96 h. Cartilage shavings were harvested at the operation room and placed in tissue culture medium (DMEM, 10% FBS, penicillin, streptomycin), and shipped to the laboratory at 4° C. The tissues were processed in the laboratory within 24 h after harvest.
Chondrocytes were isolated from the cartilage by collagenase digestion and maintained in continuous monolayer cultures in DMEM containing 10% FBS. Cell viability after chondrocyte isolation by collagenase digestion of normal cartilage was >95%, determined by the typan blue stain (Sigma-Aldrich). Experiments were performed with primary or first passage cells. When necessary, trypsin will be used for cell passage.
Human chondrocytes were seeded in a 96-well plate (5×10^4/well) and incubated with culture medium overnight. […]

[3] = system: TNFa; assay: Serum TNFa ELISA in LPS-induced systemic inflammation in mice; format: in vivo, mouse; conditions: LPS 10 mg/kg I.P., compound 300 mg/kg I.V.
Protocol: Male C57BL6/J mice (8 to 10-week-old, 20-25 g) purchased from Charles River were used in this study. Mice were kept in the animal facility of the School of Medicine, University of Virginia (UVa). All experimental procedures were approved by the Ethics Committee on Animal Research of Medical School, UVa and are in accordance with the Guidelines of the National Council for Animal Experimentation Control (CONCEA).
Moderate endotoxemia by LPS was induced with a single dose (10 mg/Kg, i.p.) of LPS (Escherichia coli 0111:B4, Sigma Chemical Co., St. Louis, MO, United States), 30 min after intravenous injection of NAG or NDX1 or NDX2 or the vehicle (saline). Two doses (200 mg/kg body weight and 300 mg/kg body weight) were tested for NAG, NDX1 and NDX2. Animals without any treatment were used to obtain the baseline data. Six hours after LPS treatment, inflammation assays were performed as described below. A total of 40 animals were randomly divided into 5 groups (8 mice/group): non-treatment (NT); 10 mg/Kg LPS plus saline (LPS); 10 mg/Kg LPS plus NAG (LPS+NAG); 10 mg/Kg LPS plus NDX1 (LPS+NDX1); and 10 mg/Kg LPS plus NDX2 (LPS+NDX2). The experiment was duplicated.
TNFa and IL-6 concentrations in the serum were determined using enzyme-linked immunosorbent assay (ELISA) according to the manufacturer's instructions. […] The resultant solutions were read at 450 nm on a microplate reader.

[4] = system: primary mouse peritoneal macrophages; assay: WST-1 assay in LPS-activated primary mouse peritoneal macrophages; format: cell-based; conditions: LPS 100 ng/mL, doses of up to 1 mM, 24 h, n=8
Protocol: • 1. Non treatment (NT) • 2. LPS 100 ng/mL • 3. LPS 100 ng/mL+NDX1 dose1* • 4. LPS 100 ng/mL+NDX1 dose2* • 5. LPS 100 ng/mL+NDX1 dose3* • 6. LPS 100 ng/mL+NDX2 dose1 • 7. LPS 100 ng/mL+NDX2 dose2 • 8. LPS 100 ng/mL+NDX2 dose3 • 9. LPS 100 ng/mL+NAG dose2 • 10. LPS 100 ng/mL+NAG dose3 (*dose 1, 2, 3 were selected as low, middle and high dose with no cytotoxicity from the cytotoxic assay) The peritoneal macrophages were isolated from peritoneal cavity, and cultured in Dulbecco's modified Eagle's medium (DMEM, Gibco BRL, Gaithersburg, MD) supplemented with 10% fetal bovine serum (FBS) (Hyclone Laboratories, Logan, VT) and 100 IU/mL penicillin G and 100 µg/mL streptomycin, in a humidified atmosphere of 5% carbon dioxide at 37° C. Cells will grow on a 96-well plate and co-treated with 100 ng/ml LPS (Sigma-Aldrich) 0.5 hours after addition of BNAGs and NAG. Twenty-four hours later, the cell number was counted by using the WST-1 kit (Fisher Scientific). After removal of the supernatant, […] new medium was added into each cell. Then 15 μl Cell Proliferation Reagent WST-1 was added and incubated with cells for 3 hours in dark with a humidified atmosphere of 5% carbon dioxide at 37° C. Each sample was determined at 450 nm on a microplate reader.

SMILES: CC(=O)N[C@H]1C(O)O[C@H](CO)[C@@H](O)[C@@H]1O (stereo partly shown) [NAG, N-acetyl glucosamine]
- inhibition of nitric oxide (nitrite) production [1]: couldn't
- effect on cell growth / toxicity (WST-1) [2]: could prevent inhibition of cell proliferation induced by IL-1β
- decrease of serum level of TNFa [3]: significantly decrease serum levels
- effect on cell number (WST-1) compared with LPS alone [4]: no significant effect on cell number
